Assay: xn = mol fraction of the nth substance listed
Settings: 101 kPa

CCCC[n+]1ccn(C)c1.F[P-](F)(F)(F)(F)F + Cc1ccccc1
viscosity [mPa·s]
Settings	x2 = 0.05	x2 = 0.1	x2 = 0.2	x2 = 0.3	x2 = 0.4
298.15 K	–	149.5	111.5	67.3	42.9
300.65 K	126.7	99.9	–	50.1	–
303.15 K	98	–	55.7	–	24.6
305.65 K	79	57.3	44.2	–	20.42
308.15 K	65.7	47	36.8	–	17.61
310.65 K	56	–	31.7	24	15.61
313.15 K	48.7	34.7	27.9	21.33	–
315.65 K	43.1	30.8	25.1	19.23	12.97
318.15 K	38.7	27.8	22.96	–	12.06
320.65 K	35.1	25.4	21.23	–	–
323.15 K	32.2	23.49	19.82	15.09	10.71
325.65 K	29.8	21.91	18.66	14.15	10.21
328.15 K	–	20.59	17.68	13.36	9.77
330.65 K	–	19.47	16.85	12.68	9.4
333.15 K	24.5	18.52	16.14	12.09	9.08
335.65 K	23.16	17.69	15.52	11.58	–
338.15 K	–	16.96	14.98	11.13	8.56
